Source: the NIST ThermoML archive (doi:10.1016/j.jct.2013.02.023)

Test: molar heat capacity at constant pressure
Settings: 101.33 kPa, relaxation calorimetry - Quantum Design PPMS

O=P([O-])([O-])OP(=O)([O-])[O-].O=P([O-])([O-])OP(=O)([O-])[O-].O=P([O-])([O-])OP(=O)([O-])[O-].[Fe+3].[Fe+3].[Fe+3].[Fe+3] [iron(III) diphosphate]
molar heat capacity at constant pressure [J/K/mol]
Settings | Crystal 1 | Crystal 2
45.43 K | – | 122.94
45.64 K | – | 124.36
45.84 K | – | 125.76
46.02 K | – | 126.95
46.22 K | – | 128.47
46.44 K | – | 130.17
46.64 K | – | 131.93
46.84 K | – | 133.84
47.05 K | – | 135.68
47.24 K | – | 137.48
47.38 K | – | 138.74
47.44 K | – | 139.11
47.58 K | – | 139.19
47.6 K | 139.19 | 139.19
47.65 K | 138.86 | –
47.77 K | 136.97 | –
47.84 K | 134.84 | –
47.97 K | 130.03 | –
48.05 K | 126.52 | –
48.16 K | 121.47 | –
48.26 K | 116.89 | –
48.36 K | 112.95 | –
48.42 K | 110.73 | –
48.55 K | 107.38 | –
48.66 K | 105.62 | –
48.76 K | 103.95 | –
48.97 K | 102.08 | –
49.16 K | 101.07 | –
49.25 K | 100.78 | –
49.37 K | 100.37 | –
49.56 K | 99.82 | –
49.74 K | 99.5 | –
49.76 K | 99.49 | –
49.97 K | 99.12 | –
50 K | 99.09 | –
50.16 K | 98.85 | –
50.24 K | 98.89 | –
50.37 K | 98.71 | –
50.75 K | 98.49 | –
51.26 K | 98.47 | –
51.78 K | 98.62 | –
52.26 K | 99.14 | –
52.77 K | 99.39 | –
53.27 K | 99.87 | –
53.79 K | 100.51 | –
53.8 K | 100.65 | –
54.3 K | 101.12 | –
54.8 K | 101.89 | –
55 K | 102.2 | –
55.3 K | 102.66 | –
55.82 K | 103.45 | –
56.32 K | 104.29 | –
56.83 K | 105.21 | –
57.33 K | 106.12 | –
57.82 K | 106.98 | –
58.35 K | 107.99 | –
58.86 K | 109.04 | –
59.33 K | 110.07 | –
59.86 K | 111.09 | –
60 K | 111.36 | –
60.37 K | 112.09 | –
61.22 K | 114 | –
62.42 K | 116.32 | –
63.41 K | 118.45 | –
64.42 K | 120.61 | –
65 K | 121.89 | –
65.42 K | 122.92 | –
66.42 K | 124.93 | –
67.44 K | 127.27 | –
68.45 K | 129.47 | –
69.47 K | 131.89 | –
70 K | 133.03 | –
70.48 K | 134.15 | –
71.49 K | 136.51 | –
72.5 K | 138.68 | –
73.5 K | 141.06 | –
73.58 K | 141.14 | –
74.51 K | 143.36 | –
75 K | 144.64 | –
75.53 K | 145.73 | –
76.55 K | 148.3 | –
77.56 K | 150.74 | –
78.57 K | 153.39 | –
79.58 K | 155.6 | –
80 K | 156.55 | –
80.59 K | 158.26 | –
81.7 K | 160.54 | –
85 K | 168.61 | –
90 K | 180.67 | –
90.71 K | 182.62 | –
95 K | 193.23 | –
100 K | 205.34 | –
100.7 K | 205.22 | –
110 K | 227.92 | –
110.85 K | 227.84 | –
120 K | 248.76 | –
120.85 K | 248.93 | –
130 K | 268.26 | –
130.93 K | 269.49 | –
140 K | 286.79 | –
141.05 K | 288.92 | –
150 K | 304.56 | –
151.1 K | 307 | –
160 K | 321.72 | –
161.21 K | 324.93 | –
170 K | 338.34 | –
171.22 K | 342.32 | –
180 K | 354.45 | –
181.32 K | 357.51 | –
190 K | 370.05 | –
191.45 K | 374.2 | –
200 K | 385.13 | –
201.57 K | 387.79 | –
210 K | 399.67 | –
211.7 K | 401.38 | –
220 K | 413.65 | –
221.82 K | 416.43 | –
230 K | 427.07 | –
231.97 K | 429 | –
240 K | 439.91 | –
242.05 K | 440.09 | –
250 K | 452.18 | –
252.07 K | 452.65 | –
260 K | 463.87 | –
262.14 K | 465.23 | –
270 K | 475 | –
272.29 K | 475.97 | –
273.15 K | 478.39 | –
280 K | 485.58 | –
282.37 K | 488.57 | –
290 K | 495.63 | –
292.36 K | 498.4 | –
298.15 K | 503.44 | –
300 K | 505.16 | –
302.55 K | 510.46 | –
